Experimental data as given in publication PMC10353390, “Biological and Structural Analyses of New Potent Allosteric Inhibitors of HIV-1 Integrase” (Antimicrobial Agents and Chemotherapy, 2023).
Where two headings read alike, the source gives them in different places.

Tests used:
[1] = tested on: HIV-1 strains resistant to INSTIs, NRTIs, NNRTIs or PIs; format: cell-based; settings: for Fold change in EC50 relative to NL4-3, E92Q / Fold change in EC50 relative to NL4-3, G140S / Fold change in EC50 relative to NL4-3, G140S/Q148H / Fold change in EC50 relative to NL4-3, N155H / Fold change in EC50 relative to NL4-3, Q148H / Fold change in EC50 relative to NL4-3, Y143R / Fold change in EC50 relative to NL4-3, E92Q/N155H (pat.) / Fold change in EC50 relative to NL4-3, G140S/Q148H (pat.) / Fold change in EC50 relative to NL4-3, T97A/N155H (pat.): INSTI-resistant; for Fold change in EC50 relative to NL4-3, E92Q / Fold change in EC50 relative to NL4-3, G140S / Fold change in EC50 relative to NL4-3, G140S/Q148H / Fold change in EC50 relative to NL4-3, N155H / Fold change in EC50 relative to NL4-3, Q148H / Fold change in EC50 relative to NL4-3, Y143R / Fold change in EC50 relative to NL4-3, K103N/Y181C: NL4-3 background; for Fold change in EC50 relative to NL4-3, E92Q/N155H (pat.) / Fold change in EC50 relative to NL4-3, G140S/Q148H (pat.) / Fold change in EC50 relative to NL4-3, T97A/N155H (pat.): primary patient-derived strain; for Fold change in EC50 relative to NL4-3, NLAY351717: NRTI-resistant clone; for Fold change in EC50 relative to NL4-3, NLAY351753: NRTI/NNRTI-resistant clone; for Fold change in EC50 relative to NL4-3, K103N/Y181C: NRTI/NNRTIs group; for Fold change in EC50 relative to NL4-3, ARP-4595 / Fold change in EC50 relative to NL4-3, ARP-4596 / Fold change in EC50 relative to NL4-3, ARP-11801 / Fold change in EC50 relative to NL4-3, ARP-11803 / Fold change in EC50 relative to NL4-3, ARP-11807 / Fold change in EC50 relative to NL4-3, ARP-11808: PI-resistant virus
Method: To this end, we used both recombinant viruses constructed by introducing described drug resistance mutations into NL4-3 HIV-1 clone as well as drug-resistant clinical HIV-1 isolates.
(§1) MT4 cells growing exponentially at the density of 10^6/mL were infected with HIV-1 strain NL4-3 at a multiplicity of infection (MOI) of 0.001 for 2 h in the presence of different concentrations of compounds, and the CellTiter-Glo luminescent reagent (Promega) was used to quantify cell viability as described previously ([12]).

NL4-3 HIV-1 strain = assay: Multiple-round infection assay in MT4 cells, NL4-3; format: cell-based
[2] = tested on: NL4-3 HIV-1 with INLAI-selected IN single point mutations; format: cell-based
HXB2 HIV-1 strain = assay: Multiple-round infection assay in MT4 cells, HXB2; format: cell-based; settings: Human immunodeficiency virus 1, HXB2, MT4, read-out: EC50 HXB2
Method: Antiretroviral activity of BDM-2 and its analogs was first evaluated in lymphoblastoid cell line MT4 and in primary human T lymphocytes using NL4-3 and HXB2 laboratory HIV-1 isolates.
as §1

[3] = Cytotoxicity assay in MT4 cells; format: cell-based; settings: human, MT4 cells (proliferating human T-cell line), CellTiter-Glo
Excerpt: Growth inhibition was monitored in a proliferating human T-cell line (MT4) with different concentrations of compounds, using the CellTiter-Glo luminescent reagent (Promega), as previously described ([12]).

[4] = tested on: lab-adapted and clinical HIV-1 isolates; assay: Infection assays in primary T CD4+ lymphocytes; format: cell-based; settings: Human immunodeficiency virus 1, Lymphocyte
[5] = tested on: VSV-G-pseudotyped NL4-3Δenv-luc; assay: microbe, parasite or virus in culture; format: cell-based, HIV-1; settings: Human immunodeficiency virus 1, NL43, MT4, read-out: EC50 in single-round infection

## Cc1cn([C@H]2C[C@H](N=[N+]=[N-])[C@@H](CO)O2)c(=O)[nH]c1=O [AZT, azidothymidine]
[1]
  Fold change in EC50 relative to NL4-3, E92Q: 1
  Fold change in EC50 relative to NL4-3, G140S: 1
  Fold change in EC50 relative to NL4-3, G140S/Q148H: 1
  Fold change in EC50 relative to NL4-3, N155H: 1
  Fold change in EC50 relative to NL4-3, Q148H: 1
  Fold change in EC50 relative to NL4-3, Y143R: 1
  Fold change in EC50 relative to NL4-3, E92Q/N155H (pat.): 1
  Fold change in EC50 relative to NL4-3, G140S/Q148H (pat.): 1
  Fold change in EC50 relative to NL4-3, T97A/N155H (pat.): 4
  Fold change in EC50 relative to NL4-3, NLAY351717: 150
  Fold change in EC50 relative to NL4-3, NLAY351753: 210
  Fold change in EC50 relative to NL4-3, K103N/Y181C: 0.1
  Fold change in EC50 relative to NL4-3, ARP-4595: 2
  Fold change in EC50 relative to NL4-3, ARP-4596: 1
  Fold change in EC50 relative to NL4-3, ARP-11801: 1
  Fold change in EC50 relative to NL4-3, ARP-11803: 2
  Fold change in EC50 relative to NL4-3, ARP-11807: 2
  Fold change in EC50 relative to NL4-3, ARP-11808: 5

## CC(C)CN(C[C@@H](O)[C@H](Cc1ccccc1)NC(=O)O[C@H]1CO[C@H]2OCC[C@H]21)S(=O)(=O)c1ccc(N)cc1 [DRV, darunavir]
[1]
  Fold change in EC50 relative to NL4-3, G140S/Q148H: 1
  Fold change in EC50 relative to NL4-3, NLAY351717: 1
  Fold change in EC50 relative to NL4-3, NLAY351753: 1
  Fold change in EC50 relative to NL4-3, K103N/Y181C: 1
  Fold change in EC50 relative to NL4-3, ARP-4595: 1
  Fold change in EC50 relative to NL4-3, ARP-4596: 1
  Fold change in EC50 relative to NL4-3, ARP-11801: 31
  Fold change in EC50 relative to NL4-3, ARP-11803: 24
  Fold change in EC50 relative to NL4-3, ARP-11807: 12
  Fold change in EC50 relative to NL4-3, ARP-11808: 240

## O=C1Nc2ccc(Cl)cc2[C@@](C#CC2CC2)(C(F)(F)F)O1 [EFV, efavirenz]
[1]
  Fold change in EC50 relative to NL4-3, E92Q: 1
  Fold change in EC50 relative to NL4-3, G140S: 1
  Fold change in EC50 relative to NL4-3, G140S/Q148H: 1
  Fold change in EC50 relative to NL4-3, N155H: 1
  Fold change in EC50 relative to NL4-3, Q148H: 1
  Fold change in EC50 relative to NL4-3, Y143R: 1
  Fold change in EC50 relative to NL4-3, E92Q/N155H (pat.): 1
  Fold change in EC50 relative to NL4-3, G140S/Q148H (pat.): 1
  Fold change in EC50 relative to NL4-3, T97A/N155H (pat.): 2
  Fold change in EC50 relative to NL4-3, NLAY351717: 2
  Fold change in EC50 relative to NL4-3, NLAY351753: 39
  Fold change in EC50 relative to NL4-3, K103N/Y181C: 51
  Fold change in EC50 relative to NL4-3, ARP-4595: 1
  Fold change in EC50 relative to NL4-3, ARP-4596: 1
  Fold change in EC50 relative to NL4-3, ARP-11801: 0.5
  Fold change in EC50 relative to NL4-3, ARP-11803: 1
  Fold change in EC50 relative to NL4-3, ARP-11807: 2
  Fold change in EC50 relative to NL4-3, ARP-11808: 1

## COc1cc2c(cc1Cc1cccc(Cl)c1F)c(=O)c(C(=O)O)cn2[C@H](CO)C(C)C [EVG, elvitegravir]
NL4-3 HIV-1 strain; Human immunodeficiency virus 1, NL43, MT4, wild type NL4-3, Table 9, read-out: EC50 NL4-3
  EC50: 2.2 ± 1.2 nM
[1]
  Fold change in EC50 relative to NL4-3, E92Q: 24
  Fold change in EC50 relative to NL4-3, G140S: 2
  Fold change in EC50 relative to NL4-3, G140S/Q148H: 2500
  Fold change in EC50 relative to NL4-3, N155H: 12
  Fold change in EC50 relative to NL4-3, Q148H: 3
  Fold change in EC50 relative to NL4-3, Y143R: 2
  Fold change in EC50 relative to NL4-3, E92Q/N155H (pat.): 200
  Fold change in EC50 relative to NL4-3, G140S/Q148H (pat.): 2000
  Fold change in EC50 relative to NL4-3, T97A/N155H (pat.): 440
  Fold change in EC50 relative to NL4-3, NLAY351717: 1
  Fold change in EC50 relative to NL4-3, NLAY351753: 1
  Fold change in EC50 relative to NL4-3, K103N/Y181C: 1
  Fold change in EC50 relative to NL4-3, ARP-4595: 1
  Fold change in EC50 relative to NL4-3, ARP-4596: 1
  Fold change in EC50 relative to NL4-3, ARP-11801: 1
  Fold change in EC50 relative to NL4-3, ARP-11803: 1
  Fold change in EC50 relative to NL4-3, ARP-11807: 2
  Fold change in EC50 relative to NL4-3, ARP-11808: 2
[2]; NL4-3 IN A128T
  EC50 fold change compared to wild type NL4-3, A128T: 1
[2]; NL4-3 IN H171Q
  EC50 fold change compared to wild type NL4-3, H171Q: 1
[2]; NL4-3 IN N222K
  EC50 fold change compared to wild type NL4-3, N222K: 1
[2]; NL4-3 IN T174I
  EC50 fold change compared to wild type NL4-3, T174I: 1
[2]; NL4-3 IN Y99H
  EC50 fold change compared to wild type NL4-3, Y99H: 1

## CC(C)(C)NC(=O)[C@@H]1CN(Cc2cccnc2)CCN1C[C@@H](O)C[C@@H](Cc1ccccc1)C(=O)N[C@H]1c2ccccc2C[C@H]1O [IDV, indinavir]
[1]
  Fold change in EC50 relative to NL4-3, E92Q: 1
  Fold change in EC50 relative to NL4-3, G140S/Q148H: 1
  Fold change in EC50 relative to NL4-3, N155H: 1
  Fold change in EC50 relative to NL4-3, Y143R: 1
  Fold change in EC50 relative to NL4-3, NLAY351717: 1
  Fold change in EC50 relative to NL4-3, NLAY351753: 1
  Fold change in EC50 relative to NL4-3, K103N/Y181C: 1
  Fold change in EC50 relative to NL4-3, ARP-4595: 5
  Fold change in EC50 relative to NL4-3, ARP-4596: 8
  Fold change in EC50 relative to NL4-3, ARP-11801: 92
  Fold change in EC50 relative to NL4-3, ARP-11803: 260
  Fold change in EC50 relative to NL4-3, ARP-11807: 36
  Fold change in EC50 relative to NL4-3, ARP-11808: 59

## Cc1nnc(C(=O)NC(C)(C)c2nc(C(=O)NCc3ccc(F)cc3)c(O)c(=O)n2C)o1 [RAL, raltegravir]
HXB2 HIV-1 strain
  EC50: 8.7 ± 6 nM
NL4-3 HIV-1 strain; Human immunodeficiency virus 1, NL43, MT4, read-out: EC50 NL4-3
  EC50: 14 ± 9 nM
NL4-3 HIV-1 strain; Human immunodeficiency virus 1, NL43, MT4, read-out: EC90 NL4-3
  EC90: 28 ± 14 nM
[3]
  CC50: 438000 ± 29000 nM
[4]; read-out: EC50 33913N (B)
  EC50: 2.1 ± 0.1 nM
[4]; read-out: EC50 HXB2 (B)
  EC50: 2.6 ± 1.4 nM
[4]; read-out: EC50 KER2008 (A)
  EC50: 6.7 ± 4 nM
[4]; read-out: EC50 NL4-3 (B)
  EC50: 4.9 ± 2.3 nM
[4]; read-out: EC50 NP1525 (CRF01_AE)
  EC50: 4 ± 1.7 nM
[4]; read-out: EC50 NP1538 (B)
  EC50: 1.7 ± 1.9 nM
[5]
  EC50: 3.5 ± 1 nM

## Cc1cc(/C=C/C#N)cc(C)c1Nc1ccnc(Nc2ccc(C#N)cc2)n1 [RPV, rilpivirine]
[1]
  Fold change in EC50 relative to NL4-3, G140S: 1
  Fold change in EC50 relative to NL4-3, G140S/Q148H: 1
  Fold change in EC50 relative to NL4-3, Q148H: 1
  Fold change in EC50 relative to NL4-3, E92Q/N155H (pat.): 1
  Fold change in EC50 relative to NL4-3, G140S/Q148H (pat.): 1
  Fold change in EC50 relative to NL4-3, T97A/N155H (pat.): 1
  Fold change in EC50 relative to NL4-3, NLAY351717: 1
  Fold change in EC50 relative to NL4-3, NLAY351753: 0.4
  Fold change in EC50 relative to NL4-3, K103N/Y181C: 3
  Fold change in EC50 relative to NL4-3, ARP-4595: 1
  Fold change in EC50 relative to NL4-3, ARP-4596: 1
  Fold change in EC50 relative to NL4-3, ARP-11801: 0.4
  Fold change in EC50 relative to NL4-3, ARP-11803: 1
  Fold change in EC50 relative to NL4-3, ARP-11807: 1
  Fold change in EC50 relative to NL4-3, ARP-11808: 1
